Measurements as given in patent US20250281474A1, “PHARMACEUTICAL COMPOSITION FOR TREATING COGNITIVE DECLINE OR FOR TREATING OVERWEIGHTNESS OR OBESITY” (University of the Ryukyus, priority 2021, published 2025).

Key:
[1] = system: neurospheres established from NL-G-F(−/−) mice; experiment: Neurosphere culture from NL-G-F(-/-) mouse hippocampus: Aβ42/Aβ40 EIA and Aβ staining; format: cell-based
Excerpt: Biomarkers of Alzheimer's dementia include the Aβ42/Aβ40 ratio of cerebrospinal fluid (CSF) and plasma levels, phosphorylated tau (P-tau) in threonines 181 and 217, and neurofilament lite (NfL) (Curr Opin Neurol 2021 1 266-274). The Aβ42/Aβ40 ratio is considered to be able to predict Aβ accumulation in PET (Doecke J D et al., Neurology 2020). Hippocampus on 17 to 19 days of NL-G-F(−/−) mouse embryonic life was taken out and cultured by a Neurosphere method by Brewer G J et al. (Nat Protoc 2007 2, 1490-1498), and a supernatant was measured by an EIA method using this culture system. The change in the Aβ42/Aβ40 ratio by the perampanel (50 μM/methyl cellulose 4 μL) was analyzed. In 4 μL of a 0.5 w/v % aqueous solution of methyl cellulose 400, 5×10^4 spheres smaller than 50 μm in diameter were cultured in 50 ml Falcon Flask coated with poly-D-lysine/laminin, and Aβ42 and Aβ40 of the supernatant were measured by EIA method on the second day (FIG. 29A) and the fourth day (FIG. 29B) of culture. The solvent was administered 12 hours after seeding.

[2] = system: AMPAR subunits GluA1-4 mRNA; experiment: qRT-PCR of AMPAR/NMDAR subunits in hippocampal regions, Ca2+ permeability index; format: in vivo, mouse
Protocol: After preparing and collecting hippocampal slices, CA1, CA2, CA3, DG, and EC regions were separated from hippocampal slices using a dissection knife from […] background mice and ob/ob mice, respectively. The CA1, CA2, CA3, DG, and EC regions of mice were separated and immediately lysed in disposable homogenization tube BioMasher2 (trademark) (Nippi, Tokyo, Japan) using 0.5 mL of TRIzol RNA isolation reagent (Thermo Fisher Scientific, Wilmington, DE). Total RNA was individually extracted from each region according to the remaining protocol of the TRIzol RNA isolation reagent provided by the manufacturer (Thermo Fisher Scientific, Wilmington, DE). 1 μg of total RNA was reverse transcribed using PrimeScript RT Reagent Kit (Takara, Shiga, Japan). An aliquot of the obtained cDNA was diluted 1:10 and added to a master mix of TB Green Premix ExTaq (Takara, Shiga, Japan), and real-time PCR was performed using a 7500 Fast Real-Time PCR system (Applied Biosystems, Foster City, CA, USA) according to the manufacturer's instructions. The conditions for real-time PCR were as follows. 40 cycles of 95° C. for 30 seconds, then 95° C. for 5 seconds and 60° C. for 34 seconds. The fluorescence intensity was measured for each annealing step and the threshold cycle time was determined using 7500 software. In addition, relative expression levels of β-actin were normalized to respective controls (vehicle group). The relative expression level of the target gene in each sample was determined using a standard curve and further normalized to the expression level of R-actin of the same sample. The sequences of primers and probes for these genes are shown in Supplemental Table 2. The “ratio of GluA2 mRNA amount/(GluA1+GluA3+GluA4 mRNA amount” was used as a Ca^2+ permeability index.
GluA2 is edited at the Q/R site within the reentry M2 membrane loop region by adenosine deaminase (ADAR2), which acts on RNA type 2 involved in editing double-stranded RNA from adenosine (A) to inosine (I) (review, refer to 15, 16 and 17). Attempts were made to determine real-time quantitative reverse transcription polymerase chain reaction (qRT-PCR), subunit composition of AMPAR and NMDAR. Total RNA in hippocampal subregions (CA1, CA3, DG, EC) was separated, and quantitative analysis of mRNA of GluA1, GluA2, GluA3, and GluA4 for AMPAR, and GluN1, GluN2A, GluN2B, and GluN2C for NMDAR was performed by qRT-PCR. […] Based on the mRNA amount of each subunit, the ratio of GluA2 to other GluA subunits (FIG. 2B) was determined. The ratio was defined as a Ca^2+ permeability index.

N#Cc1ccccc1-c1cc(-c2ccccn2)cn(-c2ccccc2)c1=O [PER, 3-(2-cyanophenyl)-5-(2-pyridyl)-1-phenyl-1,2-dihydropyridine-2-one]
Aβ staining of the culture ([1]; fourth day of culture, formic acid treatment): decrease in Aβ
Aβ42/Aβ40 ratio of the culture supernatant (EIA) ([1]; perampanel 50 μM/methyl cellulose 4 μL, second and fourth day of culture): significantly increased
Ca2+ permeability index CA1 ([2]; GluA2 mRNA/(GluA1+GluA3+GluA4 mRNA), HFD-fed mice with PER, CA1, N=5): 0.29 ± 0.11 (N = 5)
Ca2+ permeability index CA3 ([2]; GluA2 mRNA/(GluA1+GluA3+GluA4 mRNA), HFD-fed mice with PER, CA3, N=5): 0.26 ± 0.10 (N = 5)
Ca2+ permeability index DG ([2]; GluA2 mRNA/(GluA1+GluA3+GluA4 mRNA), HFD-fed mice with PER, DG, N=5): 0.22 ± 0.06 (N = 5)
Ca2+ permeability index EC ([2]; GluA2 mRNA/(GluA1+GluA3+GluA4 mRNA), HFD-fed mice with PER, EC, N=5): 0.30 ± 0.05(N = 5)
Ca2+ permeability index via CA1, CA3, DG, EC (reduced by HFD) ([2]; HFD-fed mice, PER administration, N=5): returned to CD-fed mouse levels
GluA2 mRNA expression in CA1 (qRT-PCR) ([2]; mice fed HFD with PER, p<0.05): significant increase
